PMC10526194 (2023)

Key:
[1] = tested on: 40-mer aptamer (DNA, aptamer) ACGTTGACGCTGGTGCCCGGTTGTGGTGCGAGTGTTGTGT; test: CD titration; settings: 100 mM Na+, 5 mM K+, 2 mM Mg2+, 1 mM Ca2+; 20 mM Tris pH 7.6, 25 °C; 5 µM aptamer, 2.5-40 µM OTC
[2] = tested on: 71-mer aptamer (DNA, aptamer) GGAATTCGCTAGCACGTTGACGCTGGTGCCCGGTTGTGGTGCGAGTGTTGTGTGGATCCGAGCTCCACGTG; test: CD titration; settings: 100 mM Na+, 5 mM K+, 2 mM Mg2+, 1 mM Ca2+; 20 mM Tris pH 7.6, 25 °C; 5 µM aptamer, 2.5-40 µM OTC
[3] = tested on: thiol-modified 40-mer aptamer (DNA, aptamer) ACGTTGACGCTGGTGCCCGGTTGTGGTGCGAGTGTTGTGT; test: QCM with dissipation (frequency decrease); settings: 100 mM Na+, 5 mM K+, 2 mM Mg2+, 1 mM Ca2+; pH 7.1 and 9.1, 25 °C; 20 and 40 µM OTC
[4] = tested on: 40-mer aptamer (DNA, aptamer) ACGTTGACGCTGGTGCCCGGTTGTGGTGCGAGTGTTGTGT; test: CD thermal denaturation (250 nm free, 270 nm bound); settings: 100 mM Na+, 5 mM K+, 2 mM Mg2+, 1 mM Ca2+; 20 mM Tris pH 7.1; 40 µM OTC, 5 µM aptamer; derived from two Tm (41 to 80 °C)

`CN(C)[C@@H]1C(=O)C(C(N)=O)=C(O)[C@@]2(O)C(=O)C3=C(O)c4c(O)cccc4[C@@](C)(O)[C@H]3[C@H](O)[C@@H]12` was tested, and the binding [1] was “yes”, the binding [2] was “yes” and the binding [3] was “yes”. The “Tm shift (ΔTm)” value [4] was 39 °C.
